The text below walks through data of patent publication US20090197957A1, “Methods and compositions for the treatment of pain” (Nuon Therapeutics, Inc., priority 2005, published 2009).

The subject of assay [1] is mechanical and thermal allodynia in CIA. Nature of the assay: Allodynia assessment in arthritic mice (Plantar Von-Frey, Hargreaves test). It is filed as in vivo. The protocol:
FIG. 6 is an image depicting that 3,4-DAA inhibits mechanical and thermal allodynia, and inhibits astrocytic activation in arthritic mice. Mechanical (a) and thermal (b) allodynia, and paw swelling (c) and clinical score (d) were assessed in naïve mice on the day of arthritis onset, and up to 10 days following therapy with 200 mg/kg 3,4-DAA, […] dexamethasone, or vehicle. […] Whilst 3,4-DAA therapy reduced astrocytic activation (bottom right panel) dexamethasone had no action on GFAP levels (bottom left panel). Quantification of the number of hyper-plastic astrocytes in the spinal cord 10 days following onset of arthritis was performed (f).
The pain thresholds of the mice were assessed prior to immunization (naïve) on day of onset (day 0) and up to 10 days following therapy with 3,4-DAA (200 mg/kg/day), dexamethasone (0.5 mg/kg/2 days) or vehicle alone (n=9 per group). The Ugo Basile 37400 Plantar Von-Frey microprocessor controlled unit was used to assess mechanical hyperalgesia and Ugo Basile 7370-6 Plantar Test (Hargreaves test) was used to assess thermal hyperalgesia. Mechanical hyperalgesia was assessed by applying an increasing force to the hind paw at the rate of 3 g/second, and measuring the force required to elicit lifting of the paw. Thermal hyperalgesia was assessed by applying an increasing infrared source (intensity 50), and measuring the time required for lifting of the paw.

Another assay deals with purified B cells. Put plainly: B cell proliferation in vitro (anti-CD40, 3H-thymidine incorporation). It is filed as cell-based. The settings on record: anti-CD40 stimulation, 72 h; for IC50: B-cell, read-out: IC50 for inhibition of B cell proliferation; for B cell proliferation: varying doses. How it is done:
(§1) FIG. 7 is a graphical representation depicting that 3,4-DAA and 3-HAA inhibit B and T cell proliferation in vitro. Purified B and T cells were stimulated for 72 h with anti-CD40 (a), or anti-CD3/anti-CD28 (b) respectively, in the presence of varying doses of 3,4-DAA, or 3-HAA.
(§2) A single cell suspension was prepared by pushing splenic tissue through a cell strainer, and erythrocytes were lysed using an ammonium chloride solution (Sigma, St Louis, Mo.). B cells were positively enriched by using anti-IgM microbeads (BD Pharmingen), and T cells were positively enriched using anti-CD4 MACS microbeads, according to the manufacturer's guidelines (Miltenyi Biotec, Bergisch Gladbach, Germany). Purity was assessed by flow cytometric analysis (B cell>90% CD19+, T cell>90% CD4+). Cells were cultured at 5×10^5 cells/ml in 200 μl complete RPMI, as above, in a flat bottom 96-well plate and cultured for 72 h. B cells were stimulated with anti-CD40 monoclonal antibody (10 μg/ml; BD), and T cells were stimulated with 5 μg/ml plate-bound anti-CD3 (ebiosciences) plus 5 μg/ml soluble anti-CD28 (ebiosciences). 3,4-DAA, 3-HAA, or vehicle (DMSO) was added at graded concentrations immediately prior to stimulation. 48 hours after stimulation, 100 μl culture medium was collected, and cells were pulsed with 1 μCi ^3H thymidine per well for 18 h. Cells were then harvested and plates assessed for thymidine incorporation. Each assay was performed on a minimum of 3 occasions. IFN-γ, IL-10 and IL-5 levels were assessed in the culture medium by ELISA, as above.
(§3) Activation of purified B (FIG. 7a) and T cells (FIG. 7b) was induced by anti-CD40, and anti-CD3/CD28 respectively, and proliferation was assessed by ^3H-thymidine incorporation. […] Inhibition of proliferation was also observed when B cells were stimulated with LPS or anti-IgM. […] It was concluded that the effects of 3,4-DAA and 3-HAA on T and B cells in vitro were remarkably similar, though not identical. It is of also note that 3-HAA had no action on inflammation or allodynia, when administered therapeutically in CIA at doses of up to 400 mg/kg/day.

The subject of another assay is purified T cells. Nature of the assay: T cell proliferation in vitro (anti-CD3/anti-CD28, 3H-thymidine incorporation). The assay is classed as cell-based. The settings on record: anti-CD3/anti-CD28 stimulation, 72 h; for IC50: T-cell, read-out: IC50 for inhibition of T cell proliferation; for T cell proliferation: varying doses. The protocol:
as §1, §2, §3
In general terms: Incorporation of labelled thymidine or its analogues reports DNA synthesis.

A further assay has as its system T-cells. Nature of the assay: Cytokine production by stimulated T cells in vitro (ELISA). It is filed as cell-based. The settings on record: anti-CD3/anti-CD28 stimulation, graded concentrations. How it is done: as §1, §2, §3
Setting [2] is: established arthritis, up to 10 days therapy, 3,4-DAA 200 mg/kg/day, dexamethasone 0.5 mg/kg/2 days.

In the case of `Nc1c(O)cccc1C(=O)O` [3-Hydroxyanthranilic acid], the “action on allodynia in CIA” value in assay [1] (administered therapeutically at doses of up to 400 mg/kg/day) is recorded as “no action”. Also, in the assay on purified B cells, the IC50 is 65 µM and the B cell proliferation result is “dose-dependently inhibited”. In addition, in the assay with purified T cells, the IC50 stood at 100 µM and the T cell proliferation result is “dose-dependently inhibited”. For the same molecule, in the assay with T-cells, the “IFN-γ production by T-cells” value is “dose-dependently reduced”, the “IL-5 production by T-cells” value is “increased” and the “IL-10 production by T-cells” value was “increased”.

Take `COc1ccc(/C=C/C(=O)Nc2ccccc2C(=O)O)cc1OC` [Tranilast, 2-[[3-(3,4-dimethoxyphenyl)-1-oxo-2-propenyl]amino]benzoic acid]: in assay [1] (setting [2]), the mechanical allodynia entry is listed as “abolished” and the thermal allodynia result is “abolished”. In the assay on purified B cells, the IC50 stood at 73 µM and the B cell proliferation entry is recorded as “dose-dependently inhibited”. In the assay with purified T cells, the IC50 was found to be 28 µM and the T cell proliferation entry is given as “dose-dependently inhibited”. Moreover, in the assay on T-cells, the “IFN-γ production by T-cells” value is reported as “dose-dependently reduced”, the “IL-5 production by T-cells” value is “dose-dependently inhibited” and the “IL-10 production by T-cells” value is “dose-dependently inhibited”.
